Data on 13 molecules can be found in US20160090578A1, “ENZYMES […] GLYCOSYLATION OF POLYPHENOLS” (priority 2013, published 2016).

One experiment relates to MgtT. Particulars: E. coli DH5α pDrive::mgtT, whole cell catalysis.
For a further experiment, the system named is GtfC. The experiment in a line: Biotransformation assays with E. coli expressing recombinant GtfC, quantified by TLC. The format is cell-based, Elbe river sediment metagenome. Particulars: for Conversion (%): whole-cell biotransformation, 50 mL, 50 mM sodium phosphate buffer pH 7.0, 1% (w/v) glucose, 200 μM flavonoid, 30° C., triplicate; for Conversion in GtfC biotransformation (in words): whole-cell biotransformation with E. coli expressing GtfC. On the procedure:
The supernatant was applied in TLC analysis.
(§1) The supernatant transferred into HPLC flat bottom vials was used for TLC analysis. Samples of 20 μL were applied on 20×10 cm^2 (HP)TLC silica 60 F254 plates (Merck KGaA, Darmstadt, Germany) versus 200 pmol of reference flavonoids. To avoid carryover of substances, i.e. prevent false positives, samples were spotted with double syringe rinsing in between by the ATS 4. The sampled TLC plates were developed in ethyl acetate/acetic acid/formic acid/water 100:11:11:27 (‘Universal Pflanzenlaufmittel’) (41). After separation the TLC plates were dried in an oven at 80° C. for five minutes. The absorbance of the separated bands was determined densitometrically depending on the absorbance maximum of the applied educt substances at 285 to 370 nm using the deuterium lamp in a TLC Scanner 3 (CAMAG, Muttenz, Switzerland). Subsequently, the substances on developed TLC plates were derivatized by dipping the plates in a methanolic solution of 1% (w/v) diphenyl boric acid β-aminoethyl ester (DPBA) (42) for one second using a Chromatogram Immersion Device (CAMAG, Muttenz, Switzerland) followed by drying the TLC plates in hot air with a fan. After two minutes the bands were visualized at 365 nm with a UV hand lamp and photographed. Alternatively, fluorescence of the bands was determined densitometrically by the TLC Scanner 3 depending on the absorbance maximum of the applied substances at 320 to 370 nm.
(§2) Samples of 20 μL were sprayed by an ATS 4 (CAMAG, Muttenz, Switzerland) on HPTLC silica 60 F254 plates (Merck KGaA, Darmstadt, Germany) versus different amounts of respective standard educt and product substances. TLC plates were developed, dried, derivatized and analyzed as stated above. Regression curves were calculated from the peak area of the applied reference substances to determine the amount of produced and residual flavonoids.

Another experiment concerns MgtB. Nature of the experiment: Biocatalytic reactions with purified recombinant His-tagged MgtB and UDP-glucose, quantified by TLC. It counts as biochemical, Bacillus sp. HH1500. Particulars: for Acceptor substrate modification by His10-MgtB (in words): 500 μM UDP-α-D-glucose as donor, 100 μM acceptor substrate; for Conversion (%): 1 mL, 37° C., 2 hours, triplicate, 500 μM UDP-glucose, 100 μM flavonoid, 5 μg/mL purified recombinant MgtB. On the procedure: as §1, §2

A further experiment relates to MgtC. It counts as cell-based, Bacillus sp. BCG+1. Particulars: E. coli DH5α pDrive::mgtC, whole cell catalysis.
In the next experiment the test system is MgtW. Particulars: E. coli DH5α pDrive::mgtW, whole cell catalysis.

Molecules are shown by their SMILES.

Description for MgtT: (§3) For the detection of flavonoid modifications in bacteria a biotransformation approach was used. Cultures were grown in LB medium with appropriate antibiotic overnight. Expression cultures were prepared as stated above for overproduction of enzymes. The cells were sedimented by centrifugation at 4,500 g and resuspended in 50 mM sodium phosphate buffer pH 7 supplemented with 1% (w/v) α-D-glucose. Biotransformations with a final concentration of 100 μM flavonoid inoculated from stock solutions of 100 mM in DMSO, i.e. 0.1%, were incubated in Erlenmeyer flasks at 30° C. and 175 rpm up to 24 hours. Samples of 4 mL were withdrawn and acidified with 100 μL H3PO4 aq for extraction in 2 mL ethyl acetate. They were shaken for 1 minute and phase separated by centrifugation at 2,000 g and 4° C. The supernatant was applied in TLC analysis. For quantification, samples of 100 μL were taken and dissolved 1/10 in ethyl acetate/acetic acid 3:1. These acidified ethyl acetate samples were centrifuged at 10,000 g. The supernatant was used for quantitative TLC analysis as stated below.
Description for MgtW: as §3

Take `Cc1cc(=O)oc2cc(O)ccc12` [4-Methylumbelliferone, 7-Hydroxy-4-methylcoumarin]: the “Reaction in biotransformation with MgtT” value in the experiment on MgtT is recorded as “shown”.

As for `O=c1c(-c2ccc(O)cc2)coc2cc(O)cc(O)c12` [Genistein], the “Conversion (%)” value in the experiment with GtfC was determined as 68%. In addition, in the experiment on MgtB, the “Acceptor substrate modification by His10-MgtB (in words)” value (“Acceptor substrate modification” for short) was “modified with high yields” and the “Conversion (%)” value is on record as 72%.

As for `O=c1c(O)c(-c2ccc(O)cc2)oc2cc(O)cc(O)c12` [Kaempferol], the “Conversion (%)” value with GtfC is about 100%; in the experiment with MgtB it was about 100%; in the experiment on MgtB (listed as kaempferol), “approximately 100%”. For the same molecule, the “Acceptor substrate modification” value in the experiment on MgtB is “modified with high yields”.

For the molecule `O=c1cc(-c2ccc(O)c(O)c2)oc2cc(O)cc(O)c12` [Luteolin], the “Conversion (%)” value in the experiment on GtfC came to 86%. Moreover, the “Reaction in biotransformation with MgtC” value in the experiment on MgtC is on record as “shown”. In addition, in the experiment on MgtB, the “Acceptor substrate modification” value was “modified with high yields” and the “Conversion (%)” value is 82%.

Take `COc1ccc(-c2cc(=O)c3ccc(O)cc3o2)cc1` [Pratol]: the “Conversion in GtfC biotransformation (in words)” value in the experiment with GtfC is “converted weakly”.

`O=c1c(O)c(-c2ccc(O)c(O)c2)oc2cc(O)cc(O)c12` [Quercetin]: in the experiment on GtfC, the “Conversion in GtfC biotransformation (in words)” value was “transformed almost completely” and the “Conversion (%)” value is reported as about 100%. Further, in the experiment on MgtC, the “Reaction in biotransformation with MgtC” value is “shown”. For the same molecule, in the experiment with MgtB, the “Acceptor substrate modification” value is reported as “modified with high yields” and the “Conversion (%)” value is reported as about 100%. Moreover, the “Conversion (%)” value in the experiment with MgtB (listed as quercetin) was “approximately 100%”. Besides, the “Reaction in biotransformation with MgtW” value in the experiment on MgtW is recorded as “shown”.

For the molecule `O=C(/C=C/c1ccc(O)cc1)OC[C@H]1O[C@@H](Oc2c(-c3ccc(O)cc3)oc3cc(O)cc(O)c3c2=O)[C@H](O)[C@@H](O)[C@@H]1O` [Tiliroside, kaempferol-3-O-6″-coumaroyl-glucoside], in the experiment with MgtB, the “Acceptor substrate modification” value is given as “modified with high yields” and the “Conversion (%)” value stood at 83%.

`COc1cc(O)c(CC=C(C)C)c(O)c1C(=O)/C=C/c1ccc(O)cc1` [Xanthohumol]: in the experiment with GtfC, the “Conversion (%)” value is given as 52%.

With `O=c1cc(-c2ccc(O)cc2)oc2cc(O)cc(O)c12` [apigenin], in the experiment on MgtC, the “Reaction in biotransformation with MgtC” value is recorded as “shown”.

Consider `COc1cc([C@@H]2CC(=O)c3c(O)cc(O)cc3O2)ccc1O` [homoeriodytiol], for which the “Reaction in biotransformation with MgtC” value with MgtC is reported as “shown”. In addition, the “Reaction in biotransformation with MgtT” value with MgtT is “shown”. Also, in the experiment with MgtW, the “Reaction in biotransformation with MgtW” value was “shown”.

`Cc1cc(=O)c2c(O)cc(O)cc2o1` [noreugenin]: the “Reaction in biotransformation with MgtC” value with MgtC is “shown”.

For the molecule `O=C(CCc1ccc(O)cc1)c1c(O)cc(O)cc1O` [phloretin], the “Reaction in biotransformation with MgtC” value in the experiment on MgtC is given as “shown”. Also, in the experiment on MgtT, the “Reaction in biotransformation with MgtT” value is reported as “shown”. The “Reaction in biotransformation with MgtW” value in the experiment on MgtW is “shown”.

On to `Oc1ccc(/C=C/c2cc(O)cc(O)c2)cc1` [t-Resveratrol], for which, in the experiment on GtfC, the “Conversion (%)” value is 96%.
